Here are results for four molecules from US20110092448A1, “Peptide Conjugate for Oral Delivery of Hydrophilic Peptide Analgesics” (METABOLIC PHARMACEUTICALS LIMITED, priority 2005, published 2011).

Like-named read-outs stand apart in the source and are kept apart here.

Data set [1] in a line: Blood (serum) calcium levels in normal mice after EP-PTH. The note with it: mouse, serum; CD-1 mice, oral vs subcutaneous; read-out: oral bioavailability based on pharmacodynamic measurements. Format: in vivo, mouse. On the procedure: (§1) EP-PTH was administered orally to normal mice and the anabolic action on blood calcium levels were measured. More specifically, after an initial blood sampling at time zero, groups of normal CD-1 mice were administered EP-PTH via either oral gavage (40 μg/kg, 200 μg/kg or 400 μg/kg) or subcutaneous injection (40 μg/kg) as described in Example 3. One hour after the administration of the EP-PTH and a second blood sample was taken. The serum calcium levels of blood samples were then assessed by an enzymatic method.
(§2) The person skilled in the art will understand that the method of estimating oral availability by identifying an oral dose response curve in a pharmacodynamic animal experiment and comparing with the parenterally administered dose response curve may be used in assessing the application of the invention to other parent peptides.

The subject of data set [2] is blood calcium levels in normal CD-1 mice. Described as above. In kind it is in vivo, mouse. The settings on record: oral gavage 40, 200 or 400 μg/kg, 1 h. On the procedure: as §1, §2
The conditions of data set [3]: cited from earlier work.
For data set [4], the system named is STZ diabetic Sprague-Dawley rats with neuropathic pain. The settings on record: rat, in vivo, po.

Turning to `CC[C@H](C)[C@H](NC(=O)[C@H](CCC(=O)O)NC(=O)[C@H](CO)NC(=O)[C@@H](NC(=O)[C@H](CO)NC(=O)[C@H](CCC(N)=O)NC(=O)[C@@H](NC(=O)[C@@H](NC(=O)[C@H](CCCNC(=N)N)NC(=O)[C@@H](N)CC(C)C)[C@@H](C)CC)C(C)C)C(C)C)C(=O)N[C@@H](CCC(N)=O)C(=O)N[C@@H](CC(C)C)C(=O)N[C@@H](CCSC)C(=O)N[C@@H](Cc1c[nH]cn1)C(=O)N[C@@H](CC(N)=O)C(=O)N[C@@H](CC(C)C)C(=O)NCC(=O)N[C@@H](CCCCN)C(=O)N[C@@H](Cc1c[nH]cn1)C(=O)N[C@@H](CC(C)C)C(=O)N[C@@H](CC(N)=O)C(=O)N[C@@H](CO)C(=O)N[C@@H](CCSC)C(=O)N[C@@H](CCC(=O)O)C(=O)N[C@@H](CCCNC(=N)N)C(=O)N[C@H](C(=O)N[C@@H](CCC(=O)O)C(=O)N[C@@H](Cc1c[nH]c2ccccc12)C(=O)N[C@@H](CC(C)C)C(=O)N[C@@H](CCCNC(=N)N)C(=O)N[C@@H](CCCCN)C(=O)N[C@@H](CCCCN)C(=O)N[C@@H](CC(C)C)C(=O)N[C@@H](CCC(N)=O)C(=O)N[C@@H](CC(=O)O)C(=O)N[C@H](C(=O)N[C@@H](Cc1c[nH]cn1)C(=O)N[C@@H](CC(N)=O)C(=O)N[C@@H](Cc1ccccc1)C(=O)O)C(C)C)C(C)C` [EP-PTH], the bioavailability in data set [1] was roughly 10%. Further, the “effect on blood calcium levels compared to vehicle control” value in data set [2] is listed as “dose-dependent effect”.
In the case of “AOD9604: AOD peptide derived from the C-terminal sequence of human growth hormone, earlier applications (YLRIVQCRSVEGSCGF)”, in data set [3] (earlier applications PCT/AU98/00724, PCT/AU01/00354, PCT/AU00/01362), the oral bioavailability entry is recorded as “substantially orally bioavailable”.
In the case of “Tyr-Leu-Arg-Ile-Val-Gly-Cys-Cys-Ser-Asp-Pro-Arg-Cys-Asn-Tyr-Asp-His-Pro-Glu-Ile-Cys-NH2 [ACV3.2]”, the oral availability result in data set [4] is “substantial oral availability”. Also, the “analgesic effect vs vehicle group” value in data set [4] (1 mg/kg) is on record as “significant difference”.
In the case of “parathyroid hormone: hormone known to regulate levels of blood calcium; parent peptide of EP-PTH”, the oral bioavailability result in data set [3] (reported) was “about 0.3%”.
